According to patent US9452164B2, “Imidazopyridine derivatives, process for preparation thereof and therapeutic use thereof” (SANOFI, priority 2010, dated 2016):
Structures can show the parent of a compound that is named as a salt.

Key:
[1] = tested on: HUVEC cells stimulated with FGF-2; test: FGF-2-induced in vitro proliferation of HUVEC cells; assay type: cell-based, human; conditions: HUVEC stimulated with FGF-2, ATP luminescence
Description: To do this, HUVEC human vein endothelial cells (promocell, C-12200) are seeded at a rate of 5000 cells per well of a 96-well plate (Biocoat collagen I cellware, Becton Dickinson 354650) in 100 μl of RPMI 1640 deprivation medium (Invitrogen, 31872-025) supplemented with 0.5% or 1% FCS, 2 mM glutamine, 1× sodium pyruvate (Invitrogen; 11360-039) and 1×NEAA (Invitrogen, 11140-035), overnight at 37° C. in the presence of 5% CO2. The following morning, the medium is suctioned-off and replaced with 50 μl of deprivation medium containing the antagonists at a 2× concentration, to which are added 50 μl of FGF-2 (R&D systems, 133-FB-025; Invitrogen, PHG0026) at 0.2 ng/ml (i.e. 2×). After 48 or 72 h, 100 μl of Cell Titer-GLO™ Luminescent Cell Viability Assay (Promega, G7571) are added for 10 min in order to measure, by means of a luminometer, the amount of ATP present in the cells and which is in relation to the number of cells per well corresponding to the cell proliferation.
The antagonists of the present invention are considered to be active as long as they are capable of inhibiting FGF-2-induced proliferation of HUVEC cells at a dose less than or equal to 300 nM.

[2] = tested on: HUVEC cells stimulated with FGF-2; test: FGF-2-induced in vitro angiogenesis of HUVEC cells; assay type: cell-based, human; conditions: HUVEC stimulated with FGF-2, 24 h, pseudotubule network length
Description: To do this, matrices composed of matrigel (growth factor reduced matrigel, Becton Dickinson 356230) and collagen (rat tail collagen type I, Becton Dickinson 354236) are deposited, at a rate of 160 μl, into each chamberslide well (Biocoat Cellware collagen, Type I, 8-well culturesides: Becton Dickinson 354630), or 60 μl per well of 96-well plates (Biocoat collagen I cellware, Becton Dickinson 354407). The matrix is prepared by mixing ⅓ of matrigel, 1 mg/ml final concentration of collagen, 0.1N NaOH (0.026× the volume of collagen in μl) and 1×PBS, and the volume is then adjusted with water. The gels are kept at 37° C. for 1 hour so as to allow them to polymerize. […] After 24 hours, the length of the network of microtubules formed was measured using a computer-assisted image analysis system (Imagenia Biocom, Courtaboeuf, France) and the total length of the pseudotubules in each well was determined. The average total length of the microcapillary network was calculated in μm for each condition corresponding to the average of 6 replicates. […]
In this experiment, the molecules are evaluated at 3 and 30 nM on induction of the angiogenesis of HUVEC human cells by FGF-2.

OF1 female mice = test: Model of inflammatory angiogenesis in mice (air pocket granuloma, carmine red dye); assay type: in vivo; conditions: for % inhibition of the angiogenic parameter (dye content) / % inhibition of the inflammatory parameter (mass of the granuloma): daily oral, mice; for dye content corresponding to the angiogenesis / weight of the granuloma (dry weight of the skin), inflammation part: one week of daily treatment
Description: The model described by Colville-Nash et al., in 1995, makes it possible to study pharmacological agents capable of modulating the occurrence of angiogenesis in an inflammatory context. The model is developed on OF1 female mice (Charles River Laboratories) weighing approximately 25 g, and by groups of 12. The animals are anaesthetized with sodium pentobarbital (60 mg/kg; Sanofi Nutrition Sante animale)) intraperitoneally. An air pocket is created on the back of the mouse by subcutaneous injection of 3 ml of air. After they have awoken, the animals receive a treatment generally by gavage, and receive an injection of 0.5 ml of Freund's adjuvant (Sigma) with 0.1% of croton oil (Sigma) in the pocket. Seven days later, the mice are again anaesthetized and placed on a hot plate at 40° C. One ml of carmine red (Aldrich Chemicals, 5% in 10% of gelatin) is injected into the tail vein. The animals are then placed at 4° C. for 2-3 hours. The skins are then taken and dried for 24 h in an oven at 56° C. The dry tissues are weighed and placed in 1.8 ml of digestion solution (2 mM dithiothreitol, 20 mM Na2HPO4, 1 mM EDTA, 12 U/ml papain) for 24 h. The dye is then dissolved in 0.2 ml of 5M NaOH. The skins are centrifuged at 2000 rpm for 10 min at ambient temperature. The supernatants are filtered through 0.2 μm cellulose acetate membranes. The filtrates are read in a spectrophotometer at 492 nm against a carmine red calibration range. Two parameters are studyed: the dry weight of the granuloma and the amount of dye after digestion of the tissues. The results are expressed as mean values (±sem). The differences between the groups are tested with an ANOVA followed by a Dunnett's test, of which the reference group is the “solvent control” group.
The FGF-R antagonists are evaluated between 1 and 50 mg/kg using methylcellulose/tween (0.6% v/v) as vehicle or any other vehicle which allows the active ingredient to be solubilized. The molecules are administered daily, orally (one or two times a day) by gavage. The antagonists of the present invention are considered to be active as long as they enable a significant reduction in the angiogenic parameter, i.e. a reduction in the amount of carmine red dye in the skins of the animals tested.

CCCn1c(=O)n(Cc2ccc(F)cc2)c(=O)c2cc(C(=O)c3nc(-c4cccc(C(=O)[O-])c4)c4ccccn34)ccc21.[Na+] [Compound No. 72, Sodium Salt of 3-(3-{[3-(4-fluorobenzyl)-1-propyl-2,4-dioxo-1,2,3,4-tetrahydroquinazolin-6-yl]carbonyl}imidazo[1,5-a]pyridin-1-yl)benzoic acid]
inhibition of proliferation as percentage of the control ([1]; 30 nM): 38%
inhibition of proliferation as percentage of the control ([1]; 300 nM): 55%
inhibition of angiogenesis as a percentage of the control ([2]; 3 nM): 36%
inhibition of angiogenesis as a percentage of the control ([2]; 30 nM): 24%
% inhibition of the angiogenic parameter (dye content) (OF1 female mice; 10 mg/kg, one week): 43%
% inhibition of the inflammatory parameter (mass of the granuloma) (OF1 female mice; 10 mg/kg, one week): 38%
dye content corresponding to the angiogenesis (OF1 female mice; 10 mg/kg): significantly reduce
weight of the granuloma (dry weight of the skin), inflammation part (OF1 female mice; 10 mg/kg): significantly reduce

O=C(c1ccc2nc[nH]c(=O)c2c1)c1ncc2ccccn12 [Compound No. 3, 6-(Imidazo[1,5-a]pyridin-3-ylcarbonyl)quinazolin-4(3H)-one]
melting point: 289 °C

CCCn1c(C)nc2ccc(C(=O)c3nc(-c4cccc(C(N)=O)c4)c4ccccn34)cc2c1=O [Compound No. 55, 3-{3-[(2-Methyl-4-oxo-3-propyl-3,4-dihydroquinazolin-6-yl)carbonyl]imidazo[1,5-a]pyridin-1-yl}benzamide]
melting point: 238 °C

CCCn1c(=O)[nH]c2ccc(C(=O)c3ncc4ccccn34)cc2c1=O [Compound No. 1, 6-(Imidazo[1,5-a]pyridin-3-ylcarbonyl)-3-propylquinazoline-2,4(1H,3H)-dione]
melting point: 304 °C

CCCn1c(=O)[nH]c2ccc(C(=O)c3nc(-c4cccc(C(=O)[O-])c4)c4ccccn34)cc2c1=O.[Na+] [Compound No. 10, Sodium Salt of 3-{3-[(2,4-dioxo-3-propyl-1,2,3,4-tetrahydroquinazolin-6-yl)carbonyl]imidazo[1,5-a]pyridin-1-yl}benzoic acid]
% inhibition of the angiogenic parameter (dye content) (OF1 female mice; 30 mg/kg): 19%
% inhibition of the inflammatory parameter (mass of the granuloma) (OF1 female mice; 30 mg/kg): 19%

CCCn1c(C)nc2ccc(C(=O)c3nc(-c4cccc(C(=O)O)c4)c4ccccn34)cc2c1=O [Compound No. 53, 3-{3-[(2-Methyl-4-oxo-3-propyl-3,4-dihydroquinazolin-6-yl)carbonyl]imidazo[1,5-a]pyridin-1-yl}benzoic acid]
melting point: 305 °C

CCCn1c(=O)[nH]c2ccc(C(=O)c3ncc4ccc(C(=O)O)cn34)cc2c1=O [Compound No. 8, 3-[(2,4-Dioxo-3-propyl-1,2,3,4-tetrahydroquinazolin-6-yl)carbonyl]imidazo[1,5-a]pyridine-6-carboxylic acid]
melting point: 384 °C

CCCn1c(=O)n(CCOc2ccc(F)cc2)c(=O)c2cc(C(=O)c3nc(-c4cccc(C(=O)[O-])c4)c4ccccn34)ccc21.[Na+] [Compound No. 223, Sodium Salt of 3-[3-({3-[2-(4-fluorophenoxy)ethyl]-1-propyl-2,4-dioxo-1,2,3,4-tetrahydroquinazolin-6-yl}carbonyl)imidazo[1,5-a]pyridin-1-yl]benzoic acid]
% inhibition of the angiogenic parameter (dye content) (OF1 female mice; 10 mg/kg, one week): 43%
% inhibition of the inflammatory parameter (mass of the granuloma) (OF1 female mice; 10 mg/kg, one week): 25%

CCCn1c(=O)[nH]c2ccc(C(=O)c3nc(-c4cccc(C(N)=O)c4)c4ccccn34)cc2c1=O [Compound No. 29, 3-{3-[(2,4-Dioxo-3-propyl-1,2,3,4-tetrahydroquinazolin-6-yl)carbonyl]imidazo[1,5-a]pyridin-1-yl}benzamide]
melting point: 345 to 346 °C

Cn1c(=O)n(Cc2ccc(F)cc2)c(=O)c2cc(C(=O)c3nc(-c4cccc(C(=O)[O-])c4)c4ccccn34)ccc21.[Na+] [Compound No. 49, Sodium Salt of 3-(3-{[3-(4-fluorobenzyl)-1-methyl-2,4-dioxo-1,2,3,4-tetrahydroquinazolin-6-yl]carbonyl}imidazo[1,5-a]pyridin-1-yl)benzoic acid]
inhibition of proliferation as percentage of the control ([1]; 30 nM): 9%
inhibition of proliferation as percentage of the control ([1]; 300 nM): 29%
% inhibition of the angiogenic parameter (dye content) (OF1 female mice; 10 mg/kg, one week): 46%
% inhibition of the inflammatory parameter (mass of the granuloma) (OF1 female mice; 10 mg/kg, one week): 40%
dye content corresponding to the angiogenesis (OF1 female mice; 10 mg/kg): significantly reduce
weight of the granuloma (dry weight of the skin), inflammation part (OF1 female mice; 10 mg/kg): significantly reduce

CCCn1c(=O)[nH]c2ccc(C(=O)c3nc(-c4cccc(-c5nc(C)no5)c4)c4ccccn34)cc2c1=O [Compound No. 36, 6-({1-[3-(3-Methyl-1,2,4-oxadiazol-5-yl)phenyl]imidazo[1,5-a]pyridin-3-yl}carbonyl)-3-propylquinazoline-2,4(1H,3H)-dione]
melting point: 276 to 277 °C

Cn1c(=O)n(Cc2ccc(F)cc2)c(=O)c2cc(C(=O)c3nc(-c4cccnc4)c4ccccn34)ccc21 (as salt: hydrochloride) [Compound No. 113, 3-(4-Fluorobenzyl)-1-methyl-6-[(1-pyridin-3-ylimidazo[1,5-a]pyridin-3-yl)carbonyl]quinazoline-2,4(1H,3H)-dione]
melting point: 267 °C

CCCn1c(=O)[nH]c2ccc(C(=O)c3nc(NS(C)(=O)=O)c4ccccn34)cc2c1=O [Compound No. 13, N-{3-[(2,4-Dioxo-3-propyl-1,2,3,4-tetrahydroquinazolin-6-yl)carbonyl]imidazo[1,5-a]pyridin-1-yl}methanesulphonamide]
melting point: 334 °C

CN(C)CCNC(=O)c1cccc(-c2nc(C(=O)c3ccc4c(c3)c(=O)n(Cc3ccc(F)cc3)c(=O)n4C)n3ccccc23)c1.Cl
melting point: 247 °C

Cl.Cn1c(=O)n(Cc2ccc(F)cc2)c(=O)c2cc(C(=O)c3nc(-c4cccc(C(=O)OCCN5CCOCC5)c4)c4ccccn34)ccc21
melting point: 215 °C
